Patent US20220267373A1, “SELF-ASSEMBLING PEPTIDES AND HYDROGELS” (UNIVERSITY OF VIRGINIA PATENT FOUNDATION, priority 2018, published 2022)
Like-named read-outs stand apart in the source and are kept apart here. Where no end group is shown, it is not given here.

Columns and labels:
[1] = Electron microscopy (TEM, cryo-EM) of nanofiber morphology; format: physicochemical; conditions: for nanostructure morphology (TEM): 1.5 wt % in PBS at pH 7.4; for typical fiber / ribbon diameter: 1.5 wt % hydrogels at pH 7.4
Protocol: 3.5 μL of peptide hydrogel was placed on a holey carbon grid (Protochips, Inc.). Three washes of deionized water, and three washes of 2% uranyl acetate staining solutions with 2 s blotting between each step was performed. Samples were analyzed on a Tecnai F20 equipped with a 4 k×4 k UltraScan CCD camera. Pitch and length were determined using Fiji (Schindelin, J. et al., Fiji: an open-source platform for biological-image analysis. Nat Methods 2012, 9 (7), 676-682, herein incorporated by reference in its entirety) and the FiberApp software package (Usov, I.; Mezzenga, R., FiberApp: An Open-Source Software for Tracking and Analyzing Polymers, Filaments, Biomacromolecules, and Fibrous Objects. Macromolecules 2015, 48 (5), 1269-1280, herein incorporated by reference in its entirety) was used to compute autocorrelation functions of intensity profiles.

[2] = Hydrogel formation (gelation) of peptides dissolved in PBS with pH adjustment; format: physicochemical; conditions: for gelation as the pH was raised: pH raised from low pH; for hydrogel formation: dissolved in PBS at pH 7.4 and 1.5 wt %
Protocol: (§1) Lyophilized peptides were dissolved in PBS to a final concentration of 1.5 or 3 wt. %. The pH of the peptide solutions was adjusted by drop-wise addition of minute amounts of HCl or NaOH. Rheological tests were performed on 50 μL hydrogels 30 minutes after induction of gelation (Anton Par, P25S 25 mm parallel steel plates) with a measuring gap of 250 μm. Storage (G′) and loss (G″) moduli were measured as a function of strain (%) ranging from 0.01 to 100% with a constant frequency of 10 rad/s. Frequency sweeps were performed at angular frequencies ranging from 1 to 100 rad/s at 0.1% strain. For recovery experiments, a step-time procedure was utilized with a series of applied strains at a fixed oscillation frequency of 10 rad/s. Initially, samples were applied with 0.01% strain for 100 s followed immediately by a 100% strain for 50 s, and cycled 5 times.
The secondary structural content of pentapeptide specimens was probed by ATR-FTIR spectroscopy. Samples of the pentapeptides of interest were generated via solid-phase peptide synthesis methods. An alanine (Ala) scan of KYFIL was used to assess each AA's contribution to gelation, wherein individual amino acids (AAs) were sequentially exchanged with Ala or Val. Ala and Val were the substituted residues of choice, as they either eliminate a side-chain beyond the Cβ atom (Ala) or otherwise would be expected to minimally alter the main-chain conformation (Val). As uncharged and relatively compact residues, Ala and Val would not be expected to introduce (confounding) electrostatic or steric effects. All pentapeptides were dissolved in phosphate-buffered saline (PBS) at a concentration of 1.5% or 3% (weight/volume) and adjusted to a pH of 7.4. Gelling peptides (solid lines, FIG. 2) display a strong amide I absorbance at ≈1629 cm^−1, arising from vibrational modes of the amide group; these vibrations, in the region of 1700→1600 cm^−1, correspond to stretching of the C═O and C—N bonds, as well as bending of the N—H. This region of the IR spectrum is particularly sensitive to variations in secondary structural conformation and, in the case of our pentapeptide samples, is indicative of β-sheet hydrogen bonding (FIG. 2, FIG. 12, and FIGS. 13A-B). […] This can be inferred because the amide I region of parallel β-sheets harbors a single predominant signature (near 1630 cm^−1), while antiparallel sheets generally feature a second (minor) peak near ≈1680-1690 cm^−1. […] By correlating our IR observations with variations in AA sequence, it appears that amphiphilicity and a capacity for π-system interactions (e.g., π . . . π stacking and π . . . cation interactions with the benzyl side-chain of the central Phe) play a key role in self-assembly and hydrogel formation (FIG. 2).

[3] = Rheology: storage modulus (G') from strain sweeps of peptide hydrogels; format: physicochemical; conditions: pH 7.4
Protocol: as §1

[4] = pH-responsive solubility of nongelling sequences; format: physicochemical
[5] = Apparent viscosity versus shear rate (shear-thinning); format: physicochemical
[6] = Step-strain recovery / thixotropy test of hydrogel; format: physicochemical
Protocol: as §1, with “Initially, samples were applied with 0.01% strain for 100 s followed immediately by a 100% strain for 50 s, and cycled 5 times.” left out

[7] = tested on: MADM OPC line; assay: Hydrogel cell encapsulation and 3D culture (ATP, DNA, live/dead, immunostaining); format: cell-based
Protocol: OPCs were cultured in DMEM with high glucose, 4 mM L-glutamine, 1 mM sodium pyruvate (Life Technologies) with N2 and B27 supplement (Life Technologies), 1% penicillin-streptomycin (Life Technologies), 10 ng/mL mouse PDGFA-AA (eBioscience), and 50 ng/mL human NT3 (Peprotech). Cell media was changed every 2 days, and cells were grown to 90% confluency and passaged using 0.25% trypsin in Dulbecco's phosphate buffered saline (PBS). Cells were cultured in 5% CO2 atmosphere, and 21% O2 at 37° C.
Hydrogels for cell encapsulation were made using 1.5 wt % AYFIL peptide in PBS. 25 μL hydrogels with 5×10^6 cells/mL were made by mixing cells and peptides and then transferred to a cell incubator for 10 minutes at 37° C. at 100% humidity. OPC proliferation media was then added to the hydrogels, and changed every 2 days. Hydrogels were stored at −80° C. in lysis buffer before running ATP or DNA quantification assays. For quantification, gels were homogenized in lysis buffer using a hand grinder and were measured using the CellTiter-Glo luminescent Cell Viability Assay (Promega, United States) and the QuantiT PicoGreen dsDNA assay (ThermoFisher) according to manufacturer protocols.
After 2 days of culture, gels were fixed in 4% paraformaldehyde for 20 minutes at 4° C. and rinsed with PBS before permeabilizing overnight with 0.3% triton-X in PBS. Hydrogels were rinsed in PBS, and then incubated with 10 μg/mL stock solution of Alexa Fluor 568 Phalloidin (ThermoFisher) in 1% BSA in PBS overnight. 4′,6-diamidino-2-phenylindole (DAPI) was added to stain cell nuclei during the last 20 minutes of incubation. Gels were then washed 4×20 min in PBS and imaged with a Zeiss LSM 780 confocal microscope. 100 μm z-stack images were collected with a z-spacing distance of 1 μm.

[8] = 1.5 wt. % hydrogel, thixotropy test, 200% strain (200 s), 400 s recovery, FIG. 21 legend

Row | Substance | nanostructure morphology (TEM) [1] | storage modulus (G') ([3]; 3 wt % hydrogel) [Pa] | solubility at low pH [4] | behavior as the pH was raised [4] | gelation as the pH was raised [2] | typical fiber / ribbon diameter [1] | hydrogel formation [2] | storage modulus (G') ([3]; 1.5 wt % hydrogel) [Pa] | also measured
1 | KAFIL (KAFIL-NH2) [pentapeptide, C-terminally amidated, gels at pH>10] | spherical aggregates | 200 |  |  |  |  |  |  | gelation at high pH ([2]; pH>10): can gel
2 | KYAIL-NH2 [KYAIL] |  |  | soluble | precipitated as an off-white powder | never gelled |  |  |  | 
3 | KYFAL (KYFAL-NH2) [self-assembling pentapeptide, C-terminally amidated] | twisted ribbon morphologies, with longer and more infrequent pitch than KYFIL peptides | 133 |  |  |  | ≈ 10 nm | form hydrogels |  | 
4 | RGDKYFIL (RGDKYFIL-NH2) [8-mer peptide containing KYFIL] |  | ~1000 |  |  |  |  |  | ~100 | shear-thinning behavior (apparent viscosity versus shear rate) [5]: displays shear-thinning behavior
5 | KYFIL-NH2 [KYFIL] | twisted ribbon morphologies | 17000 |  |  |  | ≈ 40 nm | form hydrogels | 8000 | time to recover 90% of initial G' [6, 8]: 3.5 min; time to recover 96% of initial G' [6, 8]: 7 min; time to recover gel behavior (G'>G'') ([6]; following 100% strain): ≤ 14 s; time to recover 90% of initial G' ([6]; results text (FIG. 21)): 3.4 min; time to recover 96% of initial G' ([6]; results text (FIG. 21)): 7 min; twisted ribbon pitch ([1]; 1.5 wt % hydrogel, pH 7.4, EM): ca. 132 nm; twisted ribbon width ([1]; 1.5 wt % hydrogel, pH 7.4, EM): ca. 40 nm; nanostructure morphology (EM) in nongelling conditions ([1]; 1.5 wt %, pH 4.6): amorphous peptide aggregates; periodicity of the fibrillar twist ([1]; visual analysis and autocorrelation function of pixel intensity, TEM): ~120 nm; viability and growth of OPCs encapsulated in hydrogel ([7]; 1.5 wt % hydrogel, ATP and DNA concentrations over time): poor cell viability
6 | KYFIL-CO2H |  |  |  |  |  |  |  |  | hydrogel formation of carboxyl-terminated variant ([2]; pH 7.4): did not readily form hydrogels
7 | KYFIV-NH2 [KYFIV] |  |  | soluble | precipitated as an off-white powder | never gelled |  |  |  | 
8 | AYFIL-NH2 [AYFIL] | twisted fibrils |  |  |  |  | ≈ 10 nm | form hydrogels | ~1900 | viability and growth of OPCs encapsulated in hydrogel [7]: survived and grew; OPC proliferation (increase in DNA concentration) ([7]; 1.5 wt % hydrogel, 4 days): cells proliferate over the course of 4 days; live/dead staining of encapsulated OPCs ([7]; 1.5 wt % hydrogel, day 1): majority of cells remained viable; time OPCs remained viable after encapsulation (ATP increase) ([7]; 96 h): at least 4 days; time of culture to OPC process extension ([7]; without adhesion peptide sequences or native ECM proteins): ≤ 2 days
9 | KYFIA-NH2 [KYFIA] |  |  | soluble | precipitated as an off-white powder | never gelled |  |  |  | 
